Test results reported in paper PMC6934184, “Selective DNA-PKcs inhibition extends the therapeutic index of localized radiotherapy and chemotherapy” (The Journal of Clinical Investigation, 2019).

Biological target: T1, PIK3CA/PIK3R1 (p110α/p85α) (Homo sapiens, UniProt P42336)
T1 construct: purchased Thermo Fisher Scientific (Life Technologies) SelectScreen
Test: SelectScreen Adapta
Format: biochemical
Summary of the method: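 NU5455 was profiled across the SelectScreen Broad panel of kinase activity and binding assays. Z'LYTE reactions such as CSF1R ran at apparent Km ATP, while the Adapta CAMK1 assay used ATP listed as 10. Values are given as percent.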

T1 sequence (P42336 whole entry): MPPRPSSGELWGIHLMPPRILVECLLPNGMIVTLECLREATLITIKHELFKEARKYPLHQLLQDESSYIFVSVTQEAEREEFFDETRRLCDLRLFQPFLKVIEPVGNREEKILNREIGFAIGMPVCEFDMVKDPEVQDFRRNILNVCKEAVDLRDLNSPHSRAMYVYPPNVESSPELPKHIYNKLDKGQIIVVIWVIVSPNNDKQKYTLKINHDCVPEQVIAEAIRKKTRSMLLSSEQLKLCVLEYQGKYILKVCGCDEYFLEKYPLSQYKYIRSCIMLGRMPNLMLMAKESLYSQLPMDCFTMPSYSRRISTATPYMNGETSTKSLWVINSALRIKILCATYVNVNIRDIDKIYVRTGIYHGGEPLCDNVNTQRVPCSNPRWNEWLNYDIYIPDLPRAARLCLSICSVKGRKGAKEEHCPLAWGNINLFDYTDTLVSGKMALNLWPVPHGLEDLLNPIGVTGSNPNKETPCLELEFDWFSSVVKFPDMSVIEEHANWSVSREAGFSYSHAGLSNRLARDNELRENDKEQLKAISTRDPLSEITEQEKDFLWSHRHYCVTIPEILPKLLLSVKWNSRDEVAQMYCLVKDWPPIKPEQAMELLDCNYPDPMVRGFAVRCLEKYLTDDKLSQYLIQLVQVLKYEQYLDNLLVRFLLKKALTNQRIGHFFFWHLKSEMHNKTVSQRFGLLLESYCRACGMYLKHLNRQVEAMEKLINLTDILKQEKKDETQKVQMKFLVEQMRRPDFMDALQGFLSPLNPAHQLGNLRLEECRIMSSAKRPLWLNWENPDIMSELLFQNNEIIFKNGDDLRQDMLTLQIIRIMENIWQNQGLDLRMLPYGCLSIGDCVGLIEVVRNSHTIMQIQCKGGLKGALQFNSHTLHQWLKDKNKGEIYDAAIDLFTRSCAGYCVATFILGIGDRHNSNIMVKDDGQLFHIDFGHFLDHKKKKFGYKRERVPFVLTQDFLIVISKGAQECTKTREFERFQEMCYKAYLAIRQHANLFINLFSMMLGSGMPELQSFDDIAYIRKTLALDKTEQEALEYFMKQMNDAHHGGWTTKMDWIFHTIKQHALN
T1 sequence (P27986 whole entry partner): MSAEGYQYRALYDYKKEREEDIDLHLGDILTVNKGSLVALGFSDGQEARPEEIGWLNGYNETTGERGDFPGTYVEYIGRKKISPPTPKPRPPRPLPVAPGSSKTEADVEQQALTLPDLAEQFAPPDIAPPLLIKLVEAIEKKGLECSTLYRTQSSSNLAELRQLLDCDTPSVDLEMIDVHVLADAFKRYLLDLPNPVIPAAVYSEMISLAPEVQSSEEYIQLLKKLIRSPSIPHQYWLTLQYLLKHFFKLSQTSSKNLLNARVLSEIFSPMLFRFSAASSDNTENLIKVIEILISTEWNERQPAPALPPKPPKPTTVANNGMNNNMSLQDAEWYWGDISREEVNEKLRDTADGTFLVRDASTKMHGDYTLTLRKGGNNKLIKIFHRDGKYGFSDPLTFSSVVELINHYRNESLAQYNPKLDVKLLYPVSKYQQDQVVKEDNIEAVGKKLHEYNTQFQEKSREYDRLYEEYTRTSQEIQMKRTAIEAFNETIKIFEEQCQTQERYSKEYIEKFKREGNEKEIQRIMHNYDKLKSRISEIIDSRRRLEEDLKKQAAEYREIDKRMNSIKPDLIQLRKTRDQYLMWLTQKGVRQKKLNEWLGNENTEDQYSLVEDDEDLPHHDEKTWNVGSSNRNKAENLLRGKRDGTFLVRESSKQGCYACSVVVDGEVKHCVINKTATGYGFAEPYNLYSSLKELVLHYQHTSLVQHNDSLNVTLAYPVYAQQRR

In the case of `CN(C(=O)CN1CCOCC1)c1ccc2sc3c(-c4cccc5c(=O)cc(N6CC7CCC(C6)O7)oc45)cccc3c2c1` [NU5455], the inhibition at 1 µM was 4.2%.
